# Patent EP0505817A1, “Use of phosphatidylserine and its derivatives for the manufacture of a medicament for the treatment of degenerative pathologies also associated with immune disfunctions” (FIDIA S.p.A., priority 1991, dated 1992)
# System: TNF-α
# Experiment: Serum TNF induced by LPS in the mouse after phospholipid pretreatment (L-929 cytotoxicity bioassay)
# Format: in vivo
# Settings: S. Thyphi LPS 5 µ i.p., blood 60' later; for TNF-α title treated: average ± SEM
# Protocol: Utilized are: • 170 Charles River CD-1 albino male mice weighing about 25-30 g • 6 New Zealand male rabbits weighing about 2-2.5 kg.
# The animals after 90' from the last phospholipidic treatment or with THIS (as indicated later-on), are treated by parenteral route with S. Thyphi or E. Coli (Sigma) lipopolysaccharide.
# Particularly: • mouse: injection of 5 µg LPS i.p. (1st experiment) or 25 µg LPS i.v. (2nd experiment) the blood sample is taken after 60 min. • rabbit: injection of 1 µg LPS i.v.. The blood sample is taken after 90 minutes.
# The following products are tested: • BC-PS (phosphatidylserine in the commercially available form consisting of a composition comprising: phosphatidylserine extracted from bovine brain as described in example 1) • PS (phosphatidylserine) • PC (phosphatidylcholine) • PG (phosphatidylglycerol) • DPS (lysophosphatidylserine) • PE (phosphatidylethanolamine) • […] (1-myristoyl-2-deoxi-3-glycerophospho-L-serine) The phospholipids purity and their composition are determined by thin layer bidimensional chromatography (Punzi, L. et al.: Phospholipids in inflammatory synovial effusions. Rheumatol. Int. 6, 7-11, 1986).
# Phospholipids are then solubilized in 50 mM TRIS-HCl pH 7.8 and suitably sonicated.
# The phospholipidic dispersion is then injected in animals under the following conditions: • mouse: BC-PS 15-30 mg/kg/die i.p. for 3 days or 30 mg/kg/die i.v. for 3 days DPS, PSS₄ 20 mg/kg/die i.p. for 3 days PS, PC, PG, PE 25 mg/kg/die i.p. for 3 days • rabbit: 30 mg/kg/die i.v. for 5 days.
# LPS is then administered following the above mentioned conditions with successive blood sample for the seric TNF dosage.
# The level of seric TNF was evaluated by biological dosage, using the fibroblasts line L-929 of murine sarcoma (American type culture collection). In fact TNF is cytotoxic against said line (Meager A. et al.: Assays for tumor necrosis factor and related cytokines. J. Immunol. Methods 116: 1-17, 1989).
# Shortly, 5 x 10⁴ cells are cultured in 96 well plates with 0.1 ml RPMI 1640 medium containing 10 % (v/v) of bovine serum inactivated at 56 °C for 30'.
# After 18 hours the medium is replaced with 0.1 ml of fresh medium, containing serial dilutions of serum samples to be tested in the presence of actinomycin D (2 µg/ml) and lithium chloride 20 mM in order to increase the method sensitivity, namely the TNF cytotoxicity (Beyaert R. et al.: Lithium chloride potentiates tumor necrosis factor-mediated cytotoxicity in vitro and in vivo. Proc. Natl. Acad. Sci. 86: 9494-9498, 1989).
# An […] (4000 U/ml of TNF-α(Genzyme) is added to 3 wells in every plate and said wells are utilized as positive control in order to check the sensitivity level of the cellular line, namely to verify the specificity dosage.
# As negative controls, wells containing untreated mice serum, are used.
# After 18 hours the medium is sucked and replaced with 0.1 ml of a saline solution containing 30 mM of glucose and 0.45 mg/ml of MTT tetrazolium (3-[4,5-dimethylthiazol-2-yl]-2,5 diphenyl-tetrazolium bromide. Then, after 4 hours, 0.1 ml of an acid solution of isopropanol (0.08 N HCl in isopropanol) is added and the absorbance is read by using a plate spectrophotometer scanner provided with a filter specific for 570 nm absorbance.
# TNF cytotoxicity is calculated, by applying the formula: [formula] TNF-α title in serum samples is expressed in unit/ml and corresponds to the inverse of the dilution bringing to 50 % of cellular survival (Meager A. et al.: Assays for tumor necrosis factor and related cytokines. J. Immunol. Methods 116: 1-17, 1989).
# In order to validate the test an anti-TNF-α murine antibody (Genzyme) is used which, as foreseen (see the results) blocks completely the cytotoxicity of murine serum but not the one of rabbit serum.
Molecule,TNF-α title treated (dose 20 mg/kg i.p. for 3 days),Inhibition (%) (dose 20 mg/kg i.p. for 3 days),Inhibition (%) (dose 25 mg/kg i.p. for 3 days),TNF-α title treated (dose 25 mg/kg i.p. for 3 days)
"CCCCCCCCCCCCCC(=O)OCCCOP(=O)(O)OC[C@H](N)C(=O)O [PSS₄, 1-myristoyl-2-deoxi-3-glycerophospho-L-serine]",50±16 (5) U/serum ml,–,–,–
lysophosphatidylserine [DPS],45±11 (5) U/serum ml,80%,–,–
"phosphatidylcholine [PC, reference compound]",–,–,16%,176±53 (12) U/serum ml
phosphatidylethanolamine [PE],–,–,56%,137±46 (6) U/serum ml
"phosphatidylglycerol [PG, reference compound]",–,–,inactive,238±37 (18) U/serum ml
phosphatidylserine [PS],–,–,68%,81±21 (9) U/serum ml
